Measured values taken from patent publication US9113629B2, “4-amino-6-(4-substituted-phenyl)-picolinates and 6-amino-2-(4-substituted-phenyl)-pyrimidine-4-carboxylates and their use as herbicides” (DOW AGROSCIENCES LLC, priority 2013, dated 2015).

Key:
Test in all cases: Post-emergent Test III, herbicidal activity in wheat and barley
Assay type in all cases: in vivo
[1] = test system: KCHSC: kochia (Kochia scoparia); details: Post-emergent Test III; for pest or weed control at 35 g/ha / pest or weed control at 70 g/ha: Bassia scoparia, post-emergence, 504 h, read-out: Visual Growth Reduction (%) 21 Days After Application, KCHSC; for pest or weed control at 35 g/ha: 35 g ai/ha; for pest or weed control at 70 g/ha: 70 g ai/ha; for GR50 KCHSC: dose for 50% growth reduction; for GR80 KCHSC: dose for 80% growth reduction
Summary of the method: (§1)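 Plants at the second to third true-leaf stage, grown in a greenhouse at about 18/17 °C with a 14 h photoperiod, were sprayed post-emergence at 187 L/ha with the high rate and ½× to 1/16× serial dilutions in an acetone/DMSO/crop-oil/surfactant carrier. Injury was rated visually at 21 d on a 0–100% scale, and GR20–GR90 were derived by probit analysis.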

[2] = test system: SASKR: Russian thistle (Salsola iberica); details: Post-emergent Test III; for GR50 SASKR: dose for 50% growth reduction; for GR80 SASKR: dose for 80% growth reduction
Summary of the method: as §1

[3] = test system: VIOSS: wild pansy (Viola tricolor), field violet (Viola arvensis); details: Post-emergent Test III; for GR50 VIOSS: dose for 50% growth reduction; for GR80 VIOSS: dose for 80% growth reduction
Summary of the method: as §1

[4] = test system: MATSS: scented mayweed (Matricaria chamomilla), pineappleweed (Matricaria matricarioides); details: Post-emergent Test III; for pest or weed control at 35 g/ha / pest or weed control at 70 g/ha: Matricaria chamomilla, post-emergence, 504 h, read-out: Visual Growth Reduction (%) 21 Days After Application, MATSS; for pest or weed control at 35 g/ha: 35 g ai/ha; for pest or weed control at 70 g/ha: 70 g ai/ha; for GR50 MATSS: dose for 50% growth reduction; for GR80 MATSS: dose for 80% growth reduction
Summary of the method: as §1

[5] = test system: HORSS: barley, including spring and winter (Hordeum vulgare); details: Post-emergent Test III; for GR20 HORSS: 21 days after application, dose for 20% growth reduction, probit analysis
Summary of the method: as §1

[6] = test system: TRZSS: wheat, including spring and winter (Triticum aestivum); details: Post-emergent Test III; for GR20 TRZSS: 21 days after application, dose for 20% growth reduction, probit analysis
Summary of the method: as §1

[7] = 21 days after application, dose for 20% growth reduction, probit analysis
[8] = 21 days after application, probit analysis

SMILES	pest or weed control at 35 g/ha [1] [%]	pest or weed control at 70 g/ha [1] [%]	GR50 KCHSC [1, 8] [g ai/ha]	GR80 KCHSC [1, 8] [g ai/ha]	Visual Growth Reduction (%) 21 Days After Application, SASKR ([2]; 35 g ai/ha)	Visual Growth Reduction (%) 21 Days After Application, SASKR ([2]; 70 g ai/ha)	GR50 SASKR [2, 8] [g ai/ha]	GR80 SASKR [2, 8] [g ai/ha]	Visual Growth Reduction (%) 21 Days After Application, VIOSS ([3]; 35 g ai/ha)	Visual Growth Reduction (%) 21 Days After Application, VIOSS ([3]; 70 g ai/ha)	GR50 VIOSS [3, 8] [g ai/ha]	GR80 VIOSS [3, 8] [g ai/ha]	pest or weed control at 35 g/ha [4] [%]	pest or weed control at 70 g/ha [4] [%]	GR50 MATSS [4, 8] [g ai/ha]	GR80 MATSS [4, 8] [g ai/ha]	Visual Growth Reduction (%) 21 Days After Application, HORSS ([5]; 35 g ai/ha)	Visual Growth Reduction (%) 21 Days After Application, HORSS ([5]; 70 g ai/ha)	GR20 HORSS [5] [g ai/ha]	Visual Growth Reduction (%) 21 Days After Application, TRZSS ([6]; 35 g ai/ha)	other results
COC(=O)c1nc(-c2ccc(C(F)(F)F)c(F)c2F)c(F)c(N)c1Cl [Compound 149]	30 to 44	60 to 74	56	>140	D (60-74)	D (60-74)	24	100	F (30-44)	D (60-74)	44	>140	45 to 59	60 to 74	38	>140	D (60-74)	C (75-84)	21	E (45-59)	GR20, KCHSC [1, 7]: 18 g ai/ha; GR20, SASKR [2, 7]: 6 g ai/ha; GR20, VIOSS [3, 7]: 11 g ai/ha; GR20, MATSS [4, 7]: 9 g ai/ha; Visual Growth Reduction (%) 21 Days After Application, TRZSS ([6]; 70 g ai/ha): C (75-84); GR20 TRZSS [6]: 20 g ai/ha
COC(=O)c1nc(-c2ccc(C(F)(F)F)c(F)c2)c(F)c(N)c1Cl [Compound 165]	85 to 94	85 to 94	9	30	C (75-84)	B (85-94)	4	46	F (30-44)	D (60-74)	55	>140	0 to 29	45 to 59	81	>140	C (75-84)	B (85-94)	9	D (60-74)	Visual Growth Reduction (%) 21 Days After Application, TRZSS ([6]; 70 g ai/ha): C (75-84); GR20 TRZSS [6]: 8 g ai/ha
